Here are results for 2 molecules from US12319699B2, “L-proline sulfonamide derivatives comprising pyrazolo[4,3-e]tetrazolo[4,5-b][1,2,4]triazine system, method of manufacturing thereof, uses thereof and pharmaceutical composition comprising the same” (UNIWERSYTET MEDYCZNY W BIALYMSTOKU, priority 2018, dated 2025).

For assay [1], the system named is HT-29 human colorectal cancer cells. Put plainly: Cytotoxicity, MTT assay (Carmichael's method), cell survival. The class given is cell-based. The conditions noted are these: HT-29, 24-hour incubation. As for the experimental part: HT-29 human colorectal cancer cells (ATCC HTB-38, Manassas, VA, USA) were cultured in McCoy's 5A medium supplemented with 10% fetal bovine serum (FBS), 2 mM glutamine, 50 U/ml penicillin, 50 μg/ml of streptomycin at 37° C., in atmosphere containing 5% CO2. Subsequently, the cells were counted in a hemocytometer and were transferred in the amount of 1×10^6 cells per well in 1 ml of culture medium from Costar flasks (Sigma, USA) to Nunc 6-well plates (Wiesbaden, Germany). The cells were transferred using calcium-free phosphate buffer with the addition of 0.05% trypsin and 0.02% EDTA. […] Within the subsequent 24 hours the cells covered at least 80% of the surface of each plate well. […]
(§1) Cytotoxicity of the examined compounds according to the invention was measured by Carmichael's method (Carmichael J et al, Cancer Res., 1987, 47:943-946) and cell viability was determined using the tetrazolium salt (MT) in MTT assay. […] In a cell lysate prepared in such manner absorbance at 630 nm was measured. The result of absorbance obtained in the control cell cultures was assumed to be 100%. The viability of cells incubated in the presence of the examined compounds was expressed as percentage of the control values. The significance level p was determined by the nonparametric Mann-Whitney U test by means of SigmaStat software. […]
Background: Tetrazolium assays rely on reduction of a dye to a coloured formazan, in cell work by metabolically active cells.

In assay [2] the test system is DLD-1 human colorectal cancer cells. Described as above. It counts as cell-based. To be noted: DLD-1, 24-hour incubation. As to the method:
DLD-1 human colorectal cancer cells (ATCC CCL-221, Manassas, VA, USA) were grown in DMEM (Dulbecco's Modified Eagle's Medium) supplemented with 10% fetal bovine serum (FBS), 2 mM glutamine, 50 U/ml penicillin, 50 μg/ml streptomycin at 37° C., in atmosphere containing 5% of CO2. Then the cells were counted in a hemocytometer and transferred in the amount of 1×10^6 cells per well in 1 ml of culture medium from Costar flasks (Sigma, USA) to Nunc 6-well plates (Wiesbaden, Germany). The cells were transferred using calcium-free phosphate buffer with the addition of 0.05% trypsin and 0.02% EDTA. […] Within the subsequent 24 hours the cells covered at least 80% of the surface of each plate well. […]
as §1

Assay [3] concerns AGS human gastric cancer cells. The assay is described as above. The conditions noted are these: 24-hour incubation. The class given is cell-based. As for the experimental part:
AGS human gastric cancer cells (ATCC CRL-1739, Manassas, VA, USA) were cultured in DMEM (Dulbecco's Modified Eagle's Medium) supplemented with 10% fetal bovine serum (FBS), 2 mM glutamine, 50 U/ml penicillin, 50 μg/ml streptomycin at 37° C., in atmosphere containing 5% CO2. Subsequently, the cells were counted in a hemocytometer and transferred in the amount of […] cells per well in 1 ml of culture medium from Costar flasks (Sigma, USA) to Nunc 6-well plates (Wiesbaden, Germany). The cells were transferred using calcium-free phosphate buffer with the addition of 0.05% trypsin and 0.02% EDTA. […] Within the subsequent 24 hours the cells covered at least 80% of the surface of each plate well. […]
as §1

For assay [4], the system named is HT-29 colorectal cancer cells. Put plainly: Decrease in mitochondrial membrane potential, JC-1 MitoScreen flow cytometry. The class given is cell-based, human. The conditions noted are these: 24 hours. As to the method:
HT-29 human colorectal cancer cells (ATCC HTB-38, Manassas, VA, USA) were cultured in McCoy's 5A medium supplemented with 10% fetal bovine serum (FBS), 2 mM glutamine, 50 U/ml penicillin, 50 μg/ml of streptomycin at 37° C., in atmosphere containing 5% CO2. Subsequently, the cells were counted in a hemocytometer and were transferred in the amount of 1×10^6 cells per well in 1 ml of culture medium from Costar flasks (Sigma, USA) to Nunc 6-well plates (Wiesbaden, Germany). The cells were transferred using calcium-free phosphate buffer with the addition of 0.05% trypsin and 0.02% EDTA. […] Within the subsequent 24 hours the cells covered at least 80% of the surface of each plate well. The cells prepared in this manner were incubated with the examined compounds for 24 hours and then used for further experiments.
For the assessment of changes in mitochondrial potential JC-1 MitoScreen kit (BD Biosciences. USA) was used. DLD-1 and HT-29 cancer cells covering about 80% of the plate surface were incubated with the examined compounds according to the invention at specific concentrations in an incubator at 37° C. in 5% CO2 atmosphere for 24 hours. Both examined compounds according to the invention were used at a concentration of 1.5 μM and 3.0 μM. After the incubation period, the medium was removed, the buffer included in the kit was added and the cells after washing two times were suspended in a mixture of JC-1 dye (5,5′,6,6′-tetrachloro-1,1′,3,3′-tetraethylbenzimidazol carbocyanine iodide) with a buffer at a concentration of 10 μg/ml. Subsequently, the samples were incubated in darkness for 15 minutes, washed with PBS solution and subjected to immediate analysis with the use of BD FacsCanto II flow cytometer; the results were assessed with the use of BD FacsDiva software. In live intact cells JC-1 dye accumulates in mitochondria and forms orange fluorescing aggregates. A decrease in mitochondrial potential ΔΨm is characterized by disintegration of these aggregates and green fluorescence.

As for `COC(=O)C1CCCN1S(=O)(=O)c1ccc(-n2nc(C)c3nc4nnnn4nc32)cc1` (stereo not shown) [Compound of Formula 2, Methyl 1-[4-(7-methyl-5H-pyrazol[4,3-e]tetrazolo[4,5-b][1,2,4]triazyn-5-yl)phenylsulfonyl]pyrrolidine-2-carboxylate], the IC50 (in general, the midpoint of a concentration-inhibition curve) in assay [1] is 1730 ± 30 nM; in assay [2], 1100 ± 10 nM; in assay [3] it was 920 ± 10 nM. Moreover, the “decrease of ΔΨm, % of the cell population” value was 25.7% in assay [4] (HT-29, 1.5 μM) and 79.7% in assay [4] (HT-29, 3.0 μM).
For `COC(=O)C1CC(O)CN1S(=O)(=O)c1ccc(-n2nc(C)c3nc4nnnn4nc32)cc1` (stereo not shown) [Compound of Formula 3, Methyl 4-hydroxy-1-[4-(7-methyl-5H-pyrazolo[4,3-e]tetrazolo[4,5-b][1,2,4]triazyn-5-yl)phenylsulfonyl]pyrrolidine-2-carboxylate], the IC50 is 3130 ± 20 nM in assay [1], 3100 ± 20 nM in assay [2] and 800 ± 10 nM in assay [3]. Also, the “decrease of ΔΨm, % of the cell population” value stood at 26.9% in assay [4] (HT-29, 1.5 μM) and 81.0% in assay [4] (HT-29, 3.0 μM).
